Reference: patent publication US9273095B2, “Antibiotic peptide and preparation method therefor and application therefor” (priority 2011, dated 2016)
≈ marks a conversion by molar mass, not a printed value. Non-standard residues stand in square brackets, D forms with d. Residues, ends and D or L forms follow the SMILES beside them.

Tests used:
Enterococcus faecium = assay: microbe, parasite or virus in culture; format: cell-based
Experimental: The experimental strains are 37 standard strains preserved in lab and clinical isolated bacteria, including drug-resistant bacteria and quality-control bacteria selecting Staphylococcus aureus ATCC29213, Enterococcus faecalis ATCC29212, Escherichia coli ATCC25922, Pseudomonas aeruginosa ATCC27853 and klebsiella pneumoniae ATCC700603.
(1) Sensitivity test is conducted with two-fold agar dilution method and Denlay multipoint inoculator. Test bacteria are cultured with nutrient broth and brain heart infusion.
(2) The drug is double diluted into different concentration with MH broth after dissolved and then placed in the plate respectively.
(4) After solidification of the culture medium in the plate, test bacteria (10^4CFU/point) are inoculated by multipoint inoculator and cultured for 18 hours at constant 35° C. Then observe the results.

candida krusei = assay: microbe, parasite or virus in culture; format: cell-based
klebsiella pneumoniae = assay: microbe, parasite or virus in culture; format: cell-based
Procedure, shortened: (§1)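 Agar dilution, MH agar, drug 0.03, 0.06, 0.125 … 128 μg/ml final; inoculum 10^4CFU/point via multipoint inoculator; 35° C, 18 h. Standard and clinical isolates, drug-resistant strains included.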

Shigella flexneri = assay: microbe, parasite or virus in culture; format: cell-based
Procedure, shortened: (§2)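 Drug was serially double-diluted in MH broth, mixed into molten MH agar to final levels of 0.03 to 128 μg/ml, and allowed to solidify. Bacteria (10^4CFU/point) were then spotted on and the plates kept 18 hours at 35° C.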

Shigella = assay: microbe, parasite or virus in culture; format: cell-based
Procedure, shortened: as §2

Escherichia coli = assay: microbe, parasite or virus in culture; format: cell-based
Procedure, shortened: as §1

Staphylococcus aureus = assay: microbe, parasite or virus in culture; format: cell-based
Procedure, shortened: as §1

[1] = system: Staphylococcus epidermidis; assay: microbe, parasite or virus in culture; format: cell-based
Procedure, shortened: as §1

Pseudomonas aeruginosa = assay: microbe, parasite or virus in culture; format: cell-based
Procedure, shortened: as §1

Shigella sonnei = assay: microbe, parasite or virus in culture; format: cell-based; conditions: Shigella sonnei strains 51592
Procedure, shortened: as §2

Typhoid bacillus H901 = assay: microbe, parasite or virus in culture; format: cell-based
Procedure, shortened: as §2

[2] = Circular dichroism (CD) spectroscopy, helical structure; format: physicochemical
Experimental: The mean residue molar ellipticities of peptides are determined by circular dichroism (CD) spectroscopy, using a Jasco J-720 spectropolarimeter (Jasco, Easton, Md.), at 25° C. under benign conditions (50 mM KH2PO4/K2HPO4/100 mM KCl, pH7), as well as in the presence of an α-helix inducing solvent, 2,2,2-trifluoroethanol (TFE) (50 mM KH2PO4/K2HPO4/100 mM KCL, pH 7 buffer/50% TFE). A 10-fold dilution of a 500 μM stock solution of the peptide is loaded into a 0.02 cm fused silica cell and its mean residue molar ellipticity scanned from 190 to 250 nm. The values of mean residue molar ellipticities of the peptide at a wavelength of 222 nm are used to estimate the relative amount of α-helicity of the peptides.
To determine the secondary structure of peptides in different environments, circular dichroism (CD) spectra of the peptide analogs are measured under physiologically related pH and ionic strength (100 mM KCl, 50 mM aq. PO4, pH 7 referred to as benign conditions) and also in 50% TFE to mimic the hydrophobic environment of the membrane. CD spectra of the peptide analogs are measured under benign conditions (100 mM KCl, 50 mM KH2PO4/K2HPO4, pH 7, referred to as KP buffer) and also in 50% trifluoroethanol (TFE) to mimic the hydrophobic environment of the membrane. […] However, in the presence of 50% TFE, all three L-peptides are fully folded α-helical structures with similar molar ellipticities and helicity.
FIG. 2 illustrates graphical results of Circular dichroism (CD) spectra of peptides at pH 7.4 and 25° C., in 50 mM aq. PO4 containing 100 mM KCl, wherein KP buffer (50 mM KH2PO4, K2HPO4, 100 mM KCl, pH 7.4) mimics hydrophilic environment and KP buffer-TFE (1:1 [vol/vol]) mimics hydrophobic environment of cell membrane. The figure above represents the CD spectra of peptides in benign buffer without TFE, whilst the figure below represents CD spectra obtained in the presence of 50% TFE.

[3] = 06-12 (VREF) Vancomycin-resistant enterococci
[4] = 08-2 (ESBLs) (listed under klebsiella pneumoniae)
[5] = klebsiella pneumoniae ATCC700603
[6] = strain 7 (listed under klebsiella pneumoniae)
[7] = 08-49(MSSA) Meticillin susceptible staphylococcus aureus
[8] = 08-52(MRSA) Methicillin-resistant staphylococcus aureus
[9] = Staphylococcus aureus ATCC25923
[10] = Staphylococcus aureus ATCC29213
[11] = strain 15 (listed under Staphylococcus aureus)
[12] = 08-17 (MSSE) Meticillin susceptible staphylococcus epidermidis
[13] = 08-18 (MRSE) Methicillin-resistant staphylococcus epidermidis
[14] = (MRSE) Methicillin-resistant Staphylococcus epidermidis ATCC12228
[15] = Pseudomonas aeruginosa TCC27853
[16] = strain 17 (listed under Pseudomonas aeruginosa)

Compound | MIC (Enterococcus faecium; [3]) [µM] | MIC (Enterococcus faecium; Enterococcus faecium 06-1) [µM] | Minimal inhibitory concentration (candida krusei; JLC 30366 candida krusei) [µg/mL] | Minimal inhibitory concentration (candida krusei; JLC 30383 candida krusei) [µg/mL] | MIC (klebsiella pneumoniae; [4]) [µM] | MIC (klebsiella pneumoniae; [5]) [µM] | MIC (klebsiella pneumoniae; [6]) [µM] | MIC (Shigella flexneri) [µM] | MIC (Shigella) [µM] | MIC (Escherichia coli; 272(TEM-88)) [µM] | MIC (Escherichia coli; 274 (TEM-15)) [µM] | MIC (Escherichia coli; 276 (TEM-52)) [µM] | MIC (Staphylococcus aureus; [7]) [µM] | MIC (Staphylococcus aureus; [8]) [µM] | MIC (Staphylococcus aureus; [9]) [µM] | MIC (Staphylococcus aureus; [10]) [µM] | MIC (Staphylococcus aureus; [11]) [µM] | MIC [1, 12] [µM] | MIC [1, 13] [µM] | MIC [1, 14] [µM] | other results
CC[C@@H](C)[C@@H](NC(=O)[C@@H](CCCCN)NC(=O)[C@@H](CO)NC(=O)[C@@H](Cc1ccccc1)NC(=O)[C@@H](CC(C)C)NC(=O)[C@@H](CCCCN)NC(=O)[C@@H](CCC(=O)O)NC(=O)[C@@H](CC(C)C)NC(=O)[C@@H](CCCNC(=N)N)NC(=O)[C@@H](CCCCN)NC(=O)[C@@H](Cc1ccccc1)NC(C)=O)C(=O)N[C@H](Cc1c[nH]c2ccccc12)C(=O)N[C@H](CC(N)=O)C(=O)N[C@H](Cc1c[nH]c2ccccc12)C(=O)N[C@H](CCCCN)C(N)=O [PL-17] (Ac-[dF][dK][dR][dL][dE][dK][dL][dF][dS][dK][dI][dW][dN][dW][dK]-NH2) | 1.7 (≈ 3.51 µg/mL) | 10.7 (≈ 22.1 µg/mL) | 8 (≈ 3.88 µM) | 8 (≈ 3.88 µM) | 0.3 (≈ 0.619 µg/mL) | 2.7 (≈ 5.57 µg/mL) | 0.3 (≈ 0.619 µg/mL) | 0.3 (≈ 0.619 µg/mL) | 0.3 (≈ 0.619 µg/mL) | 0.3 (≈ 0.619 µg/mL) | 0.3 (≈ 0.619 µg/mL) | 0.7 (≈ 1.45 µg/mL) | 0.7 (≈ 1.45 µg/mL) | 5.3 (≈ 10.9 µg/mL) | 0.3 (≈ 0.619 µg/mL) | 0.3 (≈ 0.619 µg/mL) | 0.3 (≈ 0.619 µg/mL) | 1.0 (≈ 2.06 µg/mL) | 1.0 (≈ 2.06 µg/mL) | 1.0 (≈ 2.06 µg/mL) | MIC (Pseudomonas aeruginosa; [15]): 1.3 µM (≈ 2.68 µg/mL); MIC (Pseudomonas aeruginosa; [16]): 2.7 µM (≈ 5.57 µg/mL); MIC (Shigella sonnei): 0.3 µM (≈ 0.619 µg/mL); MIC (Typhoid bacillus H901): 0.7 µM (≈ 1.45 µg/mL)
Ac-FKRLEKLFSKIWNWK-NH2 [PL-12] | 1.3 | 5.3 | 8 | 16 | 5.3 | 2.7 | 5.3 | 2.7 | 1.7 | 0.7 | 1.3 | 1.3 | 0.7 | 1.3 | 1.3 | 1.3 | 1.3 | 2.7 | 1.3 | 1.3 | 50% TFE % helix ([2]; 50% TFE, relative to ellipticity (100%) of reference peptide in 50% TFE): 93.8%; secondary structure by CD (in words) ([2]; KP buffer (benign)): only partially helical; Benign buffer % helix ([2]; benign buffer, relative to ellipticity (100%) of reference peptide in 50% TFE): 11.9%; Benign buffer [θ]222 ([2]; mean residue molar ellipticity at 222 nm, 25° C., 100 mM KCl, 50 mM PO4, pH 7.0): −3350 deg · cm^2 · dmol^−1; 50% TFE [θ]222 ([2]; mean residue molar ellipticity at 222 nm, 25° C., buffer containing 50% TFE): −26450 deg · cm^2 · dmol^−1; MIC (Pseudomonas aeruginosa; [15]): 5.3 µM; MIC (Pseudomonas aeruginosa; [16]): 2.7 µM; MIC (Shigella sonnei): 2.7 µM; MIC (Typhoid bacillus H901): 5.3 µM
